Results reported in PubChem BioAssay AID1259407 (Chemical Carcinogenesis Research Information System (CCRIS), 2018).
Calls of active or inactive are those of the source. No rule for the calls is given here.

Tested on: CCRIS mutagenicity, Ames/micronucleus/aberration tests
Assay: CCRIS mutagenicity studies

c1ccccc1
mutagenic call (End Point: IN VITRO CHROMOSOMAL ABERRATIONS, Test System: BOVINE PERIPHERAL LYMPHOCYTES, Metabolic Activation: NONE): active; positive (structural changes) | mutagenic call (End Point: IN VITRO CHROMOSOMAL ABERRATIONS, Test System: BOVINE PERIPHERAL LYMPHOCYTES, Metabolic Activation: NONE, Method: FISH): active; positive (structural changes) | mutagenic call (End Point: IN VITRO CHROMOSOMAL ABERRATIONS, Test System: BOVINE PERIPHERAL LYMPHOCYTES, Metabolic Activation: RAT, S-9, AROCLOR 1254): active; positive (structural changes) | mutagenic call (End Point: IN VITRO CHROMOSOMAL ABERRATIONS, Test System: CHO CELLS, Metabolic Activation: NONE): inactive; negative | mutagenic call (End Point: IN VITRO CHROMOSOMAL ABERRATIONS, Test System: CHO CELLS, Metabolic Activation: RAT, LIVER, S-9, AROCLOR 1254): inactive; negative | mutagenic call (End Point: IN VITRO MICRONUCLEUS, Test System: AHH-1 CELLS, Metabolic Activation: NONE): inactive; negative | mutagenic call (End Point: IN VITRO MICRONUCLEUS, Test System: BOVINE LYMPHOCYTES, Metabolic Activation: NONE): active; positive | mutagenic call (End Point: IN VITRO MICRONUCLEUS, Test System: BOVINE LYMPHOCYTES, Metabolic Activation: S-9 MIX, AROCLOR 1254): active; positive | mutagenic call (End Point: IN VITRO MICRONUCLEUS, Test System: CHL/IU CELLS, Metabolic Activation: RAT, LIVER, S-9, PHENOBARBITAL AND 5,6-BENZOFLAVONE): active; positive | mutagenic call (End Point: IN VITRO MICRONUCLEUS, Test System: MCL-5 CELLS, Metabolic Activation: NONE): active; positive | mutagenic call (End Point: IN VITRO MICRONUCLEUS, Test System: V79 CELLS, Metabolic Activation: RAT, LIVER, S-9, AROCLOR 1254): inactive; negative | mutagenic call (End Point: IN VIVO CHROMOSOMAL ABERRATIONS, Test System: DUAL COLOR PAINTING OF CHROMOSOMES 8 AND 21 FROM PERIPHERAL LYMPHOCYTES, METAPHASE SPREADS, Species: HUMAN, Strain/Sex: MALE, FEMALE, Route: INHALATION (WORKPLACE), Method: FISH): active; positive | mutagenic call (End Point: IN VIVO CHROMOSOMAL ABERRATIONS, Test System: HUMAN PERIPHERAL LYMPHOCYTES, Species: HUMAN, Route: INHALATION (WORKPLACE), Method: FISH): breaks in chromosomes 1 and 9 | mutagenic call (End Point: IN VIVO CHROMOSOMAL ABERRATIONS, Test System: LYMPHOCYTES, Species: HUMAN, Route: PROBABLY INHALATION, Method: FISH (INTERPHASE OR METAPHASE; CHROMOSOMES 7, 8, 9)): active; positive (structural and ploidy changes) | mutagenic call (End Point: IN VIVO CHROMOSOMAL ABERRATIONS, Test System: PERIPHERAL BLOOD LYMPHOCYTES, Species: HUMAN (COKE OVEN WORKERS), Route: INHALATION, Method: FISH): active; positive (monosomy and trisomy of chromosomes 8 and 21) | mutagenic call (End Point: IN VIVO CHROMOSOMAL ABERRATIONS, Test System: PERIPHERAL BLOOD LYMPHOCYTES, Species: HUMAN (PETROLEUM REFINERY WORKERS), Strain/Sex: MALE, Route: INDUSTRIAL EXPOSURE): active; positive | mutagenic call (End Point: IN VIVO CHROMOSOMAL ABERRATIONS, Test System: PERIPHERAL HUMAN LYMPHOCYTES, Species: HUMAN, Route: INDUSTRIAL EXPOSURE (INHALATION)): active; positive (ploidy) | mutagenic call (End Point: IN VIVO MICRONUCLEUS, Test System: BONE MARROW POLYCHROMATIC ERYTHROCYTES, Species: MOUSE, Strain/Sex: CD-1/MALE, Route: ORAL (GAVAGE)): active; positive | mutagenic call (End Point: IN VIVO MICRONUCLEUS, Test System: BONE MARROW, Species: MOUSE, Strain/Sex: B6C3F1/MALE, Route: GAVAGE): active; positive | mutagenic call (End Point: IN VIVO MICRONUCLEUS, Test System: SPLENOCYTES, Species: MOUSE, Strain/Sex: CD-1/MALE, Route: ORAL (GAVAGE)): active; positive | mutagenic call (End Point: In vivo micronucleus, Test System: Bone marrow polychromatic erythrocytes, Species: Mouse, Strain/Sex: CD-1/Male, Route: Inhalation): active; positive | mutagenic call (End Point: In vivo micronucleus, Test System: Peripheral blood normochromatic erythrocytes, Species: Mouse, Strain/Sex: B6.129-Cdkn2atm1Rdp (i.e. Haploinsufficient p16Ink4a/p19Arf)/Female, Route: Gavage): active; positive (deletions in the cdkn2a gene predispose rodents to cancer at multiple | mutagenic call (End Point: In vivo micronucleus, Test System: Peripheral blood normochromatic erythrocytes, Species: Mouse, Strain/Sex: B6.129-Cdkn2atm1Rdp (i.e. Haploinsufficient p16Ink4a/p19Arf)/Male, Route: Gavage): active; positive (deletions in the cdkn2a gene predispose rodents to cancer at multiple | mutagenic call (Test System: AMES SALMONELLA TYPHIMURIUM, Strain/Indicator: TA97, Metabolic Activation: HAMSTER LIVER S-9, AROCLOR 1254 (10 OR 30%), Method: PREINCUBATION): inactive; negative | mutagenic call (Test System: AMES SALMONELLA TYPHIMURIUM, Strain/Indicator: TA97, Metabolic Activation: NONE, Method: PREINCUBATION): inactive; negative | mutagenic call (Test System: AMES SALMONELLA TYPHIMURIUM, Strain/Indicator: TA97, Metabolic Activation: NONE, Method: STANDARD PLATE): inactive; negative | mutagenic call (Test System: AMES SALMONELLA TYPHIMURIUM, Strain/Indicator: TA97, Metabolic Activation: RAT LIVER S-9, AROCLOR 1254 (10 OR 30%), Method: PREINCUBATION): inactive; negative | mutagenic call (Test System: AMES SALMONELLA TYPHIMURIUM, Strain/Indicator: TA97, Metabolic Activation: RAT, LIVER, S-9, AROCLOR 1254, Method: STANDARD PLATE): inactive; negative | mutagenic call (Test System: AMES SALMONELLA TYPHIMURIUM, Strain/Indicator: TA97, Metabolic Activation: S-9, Method: STANDARD PLATE): inactive; negative | mutagenic call (Test System: AMES SALMONELLA TYPHIMURIUM, Strain/Indicator: TA98, Metabolic Activation: HAMSTER LIVER S-9, AROCLOR 1254 (10 OR 30%), Method: PREINCUBATION): inactive; negative | mutagenic call (Test System: AMES SALMONELLA TYPHIMURIUM, Strain/Indicator: TA98, Metabolic Activation: NONE, Method: PREINCUBATION): inactive; negative | mutagenic call (Test System: AMES SALMONELLA TYPHIMURIUM, Strain/Indicator: TA98, Metabolic Activation: RAT LIVER S-9, AROCLOR 1254 (10 OR 30%), Method: PREINCUBATION): inactive; negative | mutagenic call (Test System: AMES SALMONELLA TYPHIMURIUM, Strain/Indicator: TA98, Metabolic Activation: RAT, LIVER, S-9, AROCLOR 1254, Method: DESICCATOR): inactive; negative | mutagenic call (Test System: AMES SALMONELLA TYPHIMURIUM, Strain/Indicator: TA98, Metabolic Activation: RAT, LIVER, S-9, AROCLOR 1254, Method: STANDARD PLATE): inactive; negative | mutagenic call (Test System: AMES SALMONELLA TYPHIMURIUM, Strain/Indicator: TA98, Metabolic Activation: RAT, LIVER, S-9, AROCLOR, Method: STANDARD PLATE): inactive; negative | mutagenic call (Test System: AMES SALMONELLA TYPHIMURIUM, Strain/Indicator: TA98, Metabolic Activation: RAT, LIVER, S-9, ETHANOL, Method: STANDARD PLATE): inactive; negative | mutagenic call (Test System: AMES SALMONELLA TYPHIMURIUM, Strain/Indicator: TA98, Metabolic Activation: RAT, LIVER, S-9, PHENOBARBITAL, Method: STANDARD PLATE): inactive; negative | mutagenic call (Test System: AMES SALMONELLA TYPHIMURIUM, Strain/Indicator: TA98, Metabolic Activation: RAT, LIVER, S-9, PYRAZOLE, Method: STANDARD PLATE): inactive; negative | mutagenic call (Test System: AMES SALMONELLA TYPHIMURIUM, Strain/Indicator: TA98, Metabolic Activation: S-9, Method: STANDARD PLATE): inactive; negative | mutagenic call (Test System: AMES SALMONELLA TYPHIMURIUM, Strain/Indicator: TA100, Metabolic Activation: HAMSTER LIVER S-9, AROCLOR 1254 (10 OR 30%), Method: PREINCUBATION): inactive; negative | mutagenic call (Test System: AMES SALMONELLA TYPHIMURIUM, Strain/Indicator: TA100, Metabolic Activation: NONE, Method: DESICCATOR): inactive; negative | mutagenic call (Test System: AMES SALMONELLA TYPHIMURIUM, Strain/Indicator: TA100, Metabolic Activation: NONE, Method: PREINCUBATION): inactive; negative | mutagenic call (Test System: AMES SALMONELLA TYPHIMURIUM, Strain/Indicator: TA100, Metabolic Activation: RAT LIVER S-9, AROCLOR 1254 (10 OR 30%), Method: PREINCUBATION): inactive; negative | mutagenic call (Test System: AMES SALMONELLA TYPHIMURIUM, Strain/Indicator: TA100, Metabolic Activation: RAT, LIVER, S-9, AROCLOR 1254, Method: DESICCATOR): inactive; negative | mutagenic call (Test System: AMES SALMONELLA TYPHIMURIUM, Strain/Indicator: TA100, Metabolic Activation: RAT, LIVER, S-9, AROCLOR 1254, Method: STANDARD PLATE): inactive; negative | mutagenic call (Test System: AMES SALMONELLA TYPHIMURIUM, Strain/Indicator: TA100, Metabolic Activation: RAT, LIVER, S-9, AROCLOR, Method: STANDARD PLATE): inactive; negative | mutagenic call (Test System: AMES SALMONELLA TYPHIMURIUM, Strain/Indicator: TA100, Metabolic Activation: RAT, LIVER, S-9, ETHANOL, Method: STANDARD PLATE): inactive; negative
